In a melting point compilation (Tetko et al.):

Compound	melting point [°C]
O=C(O)c1cc2c(Cl)c(Cl)ccc2[nH]1	281 to 283
Nc1nc(Br)ccc1O	153 to 155
FC(F)(F)c1cccc(-c2ncc[nH]2)c1	151 to 153
Cc1ccc(C(=O)c2ccccc2C(=O)O)cc1C	166 to 168
OCc1cccc2cn[nH]c12	201 to 203
NC(=S)CC(N)=S	202 to 204
O=c1c2cnn(-c3ccccc3)c2nnn1CCl	179 to 181
Cc1cc(O)c(C=O)cc1C	64 to 66
CC(=O)CN1C(=O)COCC1=O	77 to 79
COc1ccc(OCC(=O)O)c(C=O)c1	154 to 156
O=CCN1C(=O)COc2ccccc21	97 to 99
CC(O)c1nc2ccccc2n1C(F)F (centres undefined)	96 to 98
Nc1nc(-c2ccccc2Cl)c(-c2ccccc2Cl)s1	198 to 200
CC(C)(C)Oc1cccc(CCC(=O)O)n1	82 to 84
O=[N+]([O-])c1ccc(OCc2ccccc2)cc1	92 to 94
CC(Cl)C(=O)Nc1ncc(Cl)cc1Cl (centres undefined)	113 to 115
CS(=O)c1c(N)cccc1Cl (centres undefined)	107 to 109
CC1(c2ccsc2)NC(=O)NC1=O (centres undefined)	151 to 153
CC(C)c1noc(-c2ccnc(Cl)c2)n1	35 to 37
CC(C)(C)OC(=O)NC(C(=O)O)c1cccc(Cl)c1 (centres undefined)	128 to 130

Compound	melting point [°C]
CCNCC(=O)Nc1c(C)cccc1C	45 to 47
CC(C)(C)OC(=O)N1C2CCC1CC(CC(=O)O)C2 (centres undefined)	104 to 106
O=C(O)C=Cc1cncc2ccccc12	260 to 262
CCN(CC)S(=O)(=O)c1cc(C(=O)O)ccc1OC	182 to 184
NC(=O)NCc1cccs1	128 to 132
O=Cc1ccc(OCC(=O)O)c(Br)c1	196 to 198
O=C1COc2c(Cl)cccc21	108 to 110
O=[N+]([O-])c1ccc(S(=O)(=O)C(F)(F)F)cc1	81 to 83
O=C(O)C1Cc2ccccc2S1 (centres undefined)	107 to 109
NC(=O)C1CCCC1	173 to 175
O=C(O)/C=C/c1cc(Cl)ccc1Cl	192 to 194
CCC(=O)Nc1ccc(O)cc1	169 to 171
COCc1ccc(C(=O)O)o1	63 to 65
CC(C)(NS(C)(=O)=O)C(=O)O	71 to 73
CC1Cc2ccc(Br)cc2C1=O (centres undefined)	69 to 71
CCCn1ccnc1S	119 to 121
CCc1ccc(C(N)=S)cc1	47 to 51
CN(C)c1ncc(N)cn1	78 to 80
CCOC(=O)c1cnn(-c2nccs2)c1N	104 to 106
ClCc1cn(-c2ccc(Cl)c(Cl)c2)nn1	138 to 140

Compound	melting point [°C]
O=C(O)c1ccnc(OCCOc2cc(C(=O)O)ccn2)c1	269 to 271
CCCCc1ccc(-n2nnnc2S)cc1	88 to 92
O=S(=O)(Cl)c1ccc(OCC(F)F)c2ccccc12	115 to 117
O=C(O)C(=Cc1ccc(F)cc1)c1cccs1	185 to 187
CN(C1CCCCC1)S(=O)(=O)c1ccc(S)nc1	175 to 177
CCNC(=O)c1ccc(Cl)nc1	136 to 138
COc1ccccc1C(NC(=O)OC(C)(C)C)C(N)=NO (centres undefined)	185 to 187
CCN(CC)C(=O)c1ccc(N)cc1	118 to 120
COc1cccc(NCc2nnc3n2CCCCC3)c1	176 to 180
Cc1ccc(C(C)C)c2c1C(=O)CCO2	36 to 38
CCc1cc2c(=O)[nH]cnc2s1	183 to 185
O=C(CCl)N1CCSc2ccccc21	53 to 55
C=CCn1c(S)nc2sccc2c1=O	212 to 214
Cc1nc(CCC(=O)O)oc1-c1ccc(Br)cc1	179 to 181
CCCc1nonc1N	29 to 31
CNc1nc2ccccc2[nH]1	190 to 192
O=Cc1c(-c2ccc(Br)s2)nc2ccccn12	186 to 188
Sc1nnc(-c2ccco2)n1C1CCCCC1	134 to 136
Sc1nc2cc(Br)cnc2[nH]1	324 to 326
